Results reported in US11304944B2, “MetAP2 inhibitors and methods of treating obesity” (SynDevRx, Inc., priority 2013, dated 2022).

Columns and labels:
Sprague Dawley male rats = assay: Tolerability of high IV doses on q7d schedule in Sprague Dawley rats; format: in vivo; details: 100 mg/kg or 200 mg/kg IV on days 1, 8, 15, 22 and 29
Method: Sprague Dawley male rats (N=3) nine to ten weeks old with an average weight of 300 g were ad libitum fed standard rodent diet (PharmaServ lab diet 5001). […] The rats were weighed periodically and bled on day 10, day 17, day 24. For in-life blood collections, the rats were anesthetized with an inhalation mixture of 4% Isoflurane and 1.5% oxygen, then blood was collected via retro-orbital plexus puncture at a volume of at least 1 mL. […] Within the limits of comparison to normal ranges and pre-dose data, clinical findings for albumin, albumin/globulin ratio, alkaline, phosphatase, ALT (SGPT), AST (SGOT), bicarbonate, direct bilirubin, indirect bilirubin, total bilirubin, BUN, BUN/creatinine ratio, calcium, chloride, cholesterol, CK, creatinine, globulin, glucose, phosphorus, potassium, sodium, sodium/potassium ratio, total protein were unremarkable.

DIO Levin rats = assay: Oral Glucose Tolerance Test (OGTT) Day 48 and HOMA-ir in DIO Levin rats; format: in vivo; details: for Blood Glucose, Time 15 / Blood Glucose, Time 30 / Blood Glucose, Time 60 / Blood Glucose, Time 90 / Blood Glucose, Time 120: OGTT; for BW: at OGTT;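 on Blood Glucose pre-OGTT: blood glucose in mg/dL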;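 on Blood Glucose, Time 120: blood glucose in mg/dL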;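 on Blood Glucose, Time 15: blood glucose in mg/dL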;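 on Blood Glucose, Time 30: blood glucose in mg/dL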;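 on Blood Glucose, Time 60: blood glucose in mg/dL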;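 on Blood Glucose, Time 90: blood glucose in mg/dL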
Method: Animals were weighed every other day. Food consumption was measured weekly. On an approximately weekly basis throughout the study, blood samples were taken for assessment of serum chemistries including glucose and insulin. On Day 48 all rats underwent a 4 hour fasted Oral Glucose Tolerance Test (OGTT). Animals were dosed orally (per os, PO) at 8 mL/kg 25% glucose (2 g/kg). On day 68, gross pathology was performed to determine body composition.

DIO C57Bl/6 mice = assay: In vivo testing DIO mice schedule-dose response: weight, food intake, ipGTT, HOMA-ir data
Method: Animals were dosed according to the schedule in Table 17 below.
Compound dosing occurred between 9 and 10 am on the day of dosing. Groups 6 and 7 received a total of 17 doses. The q4d groups (1, 2, 3, 4, 8, 9) received a total of 9 doses. The q8d group (5) received a total of 5 drug doses. Body weight and food intake were measured every other day. Blood glucose was measured on Day −7, Day 0, Day 7, Day 14, Day 21 and Day 28 at 9:00 am in fed state (BG measured before dose on dosing days). BG was measured by glucometer. An intraperitoneal glucose tolerance test (ipGTT, 6 h fasting) was performed.
The study was terminated on day 34. Liver and epididymal white adipose tissues (eWAT) were harvested, weighed and stored at −80° C. Sera was collected to determine: AST, ALT, ALP, CK, BUN, creatinine, calcium, potassium, sodium, chloride, total protein, albumin, total bilirubin, glucose, triglyceride and cholesterol. Insulin samples were measured using a commercial kit.

DIO C57Bl6 mice = assay: Efficacy of various compounds in DIO mouse model (body weight versus time); format: in vivo; details: for BW change vs. vehicle: day 26
Method: On study day 1 animals were randomized into groups so that the average weight of the mice in each group was 47 g. The mice were treated with either phosphate buffered saline (vehicle), or compounds as listed in Table 19 dissolved in vehicle (dorsal, subcutaneous administration).

[1] = 0.6 mg/kd (so in the source) q4d sc
[2] = 03 mg/kg (so in the source) q4d sc

Q: How did the “evidence of neurotoxicity (ataxis, disorientation, tremor or convulsion)” value (Sprague Dawley male rats) turn out when “poly[HPMA-co-MA-GFLG-N-(trans-4-aminocyclohexyl)carbamoylfumagillol] [Compound 16]” was run?
A: did not exhibit any evidence of neurotoxicity

Q: And the “HOMA-ir (Insulin Sensitivity) 15 min” value (DIO Levin rats; 0.3 mg/kg q4d sc)?
A: 40.1

Q: What about the “HOMA-ir (Insulin Sensitivity) 30 min” value (DIO Levin rats; 0.3 mg/kg q4d sc) of the same substance?
A: 10.8

Q: What about the “HOMA-ir (Insulin Sensitivity) Pre-dose” value (DIO Levin rats; 0.3 mg/kg q4d sc) of the same substance?
A: 14.6

Q: And the “Blood Glucose pre-OGTT” value (DIO Levin rats; [1])?
A: 121 mg/dL

Q: What about the “Blood Glucose, Time 15” value (DIO Levin rats; [1]) of the same substance?
A: 150 mg/dL

Q: What about the “Blood Glucose, Time 30” value (DIO Levin rats; [1]) of the same substance?
A: 148 mg/dL

Q: And the “Blood Glucose, Time 60” value (DIO Levin rats; [1])?
A: 149 mg/dL

Q: What about the “Blood Glucose, Time 90” value (DIO Levin rats; [1]) of the same substance?
A: 143 mg/dL

Q: What about the “Blood Glucose, Time 120” value (DIO Levin rats; [1]) of the same substance?
A: 150 mg/dL

Q: And the BW (DIO Levin rats; [1])?
A: 662 g

Q: What about the “HOMA-ir (Insulin Sensitivity) 15 min” value (DIO Levin rats; 1 mg/kg q4d sc) of the same substance?
A: 50.1

Q: And the “HOMA-ir (Insulin Sensitivity) 30 min” value (DIO Levin rats; 1 mg/kg q4d sc)?
A: 18.1

Q: What about the “HOMA-ir (Insulin Sensitivity) Pre-dose” value (DIO Levin rats; 1 mg/kg q4d sc) of the same substance?
A: 16.4

Q: What about the “Blood Glucose pre-OGTT” value (DIO Levin rats; [2]) of the same substance?
A: 121 mg/dL

Q: And the “Blood Glucose, Time 15” value (DIO Levin rats; [2])?
A: 156 mg/dL

Q: And the “Blood Glucose, Time 30” value (DIO Levin rats; [2])?
A: 145 mg/dL

Q: And the “Blood Glucose, Time 60” value (DIO Levin rats; [2])?
A: 157 mg/dL

Q: What about the “Blood Glucose, Time 90” value (DIO Levin rats; [2]) of the same substance?
A: 149 mg/dL

Q: And the “Blood Glucose, Time 120” value (DIO Levin rats; [2])?
A: 147 mg/dL

Q: What about the BW (DIO Levin rats; [2]) of the same substance?
A: 697 g

Q: What about the “Blood Glucose pre-OGTT” value (DIO Levin rats; 3 mg/kg q4d sc) of the same substance?
A: 120 mg/dL

Q: And the “HOMA-ir (Insulin Sensitivity) 15 min” value (DIO Levin rats; 3 mg/kg q4d sc)?
A: 13.7

Q: What about the “HOMA-ir (Insulin Sensitivity) 30 min” value (DIO Levin rats; 3 mg/kg q4d sc) of the same substance?
A: 4.6

Q: And the “HOMA-ir (Insulin Sensitivity) Pre-dose” value (DIO Levin rats; 3 mg/kg q4d sc)?
A: 9.2

Q: What about the “Blood Glucose, Time 15” value (DIO Levin rats; 3 mg/kg q4d sc) of the same substance?
A: 157 mg/dL

Q: What about the “Blood Glucose, Time 30” value (DIO Levin rats; 3 mg/kg q4d sc) of the same substance?
A: 144 mg/dL

Q: And the “Blood Glucose, Time 60” value (DIO Levin rats; 3 mg/kg q4d sc)?
A: 140 mg/dL

Q: What about the “Blood Glucose, Time 90” value (DIO Levin rats; 3 mg/kg q4d sc) of the same substance?
A: 127 mg/dL

Q: What about the “Blood Glucose, Time 120” value (DIO Levin rats; 3 mg/kg q4d sc) of the same substance?
A: 129 mg/dL

Q: And the BW (DIO Levin rats; 3 mg/kg q4d sc)?
A: 582 g

Q: And the “Blood Glucose pre-OGTT” value (DIO Levin rats; 6 mg, q7d sc)?
A: 128 mg/dL

Q: And the “HOMA-ir (Insulin Sensitivity) 15 min” value (DIO Levin rats; 6 mg, q7d sc)?
A: 37.2

Q: What about the “HOMA-ir (Insulin Sensitivity) 30 min” value (DIO Levin rats; 6 mg, q7d sc) of the same substance?
A: 3.5

Q: And the “HOMA-ir (Insulin Sensitivity) Pre-dose” value (DIO Levin rats; 6 mg, q7d sc)?
A: 12.0

Q: And the “Blood Glucose, Time 15” value (DIO Levin rats; 6 mg, q7d sc)?
A: 161 mg/dL

Q: And the “Blood Glucose, Time 30” value (DIO Levin rats; 6 mg, q7d sc)?
A: 141 mg/dL

Q: And the “Blood Glucose, Time 60” value (DIO Levin rats; 6 mg, q7d sc)?
A: 145 mg/dL

Q: And the “Blood Glucose, Time 90” value (DIO Levin rats; 6 mg, q7d sc)?
A: 145 mg/dL

Q: And the “Blood Glucose, Time 120” value (DIO Levin rats; 6 mg, q7d sc)?
A: 138 mg/dL

Q: What about the BW (DIO Levin rats; 6 mg, q7d sc) of the same substance?
A: 604 g

Q: What about the “Glucose, ipGTT 0 min” value (DIO C57Bl/6 mice; 2 mg/kg q4d) of the same substance?
A: 182.8 mg/dL

Q: And the “Glucose, ipGTT 15 min” value (DIO C57Bl/6 mice; 2 mg/kg q4d)?
A: 488.6 mg/dL

Q: What about the “Insulin, ipGTT 0 min” value (DIO C57Bl/6 mice; 2 mg/kg q4d) of the same substance?
A: 104.6 uU/ml

Q: And the “Insulin, ipGTT 15 min” value (DIO C57Bl/6 mice; 2 mg/kg q4d)?
A: 133.4 uU/ml

Q: And the “Glucose, ipGTT 0 min” value (DIO C57Bl/6 mice; 6 mg/kg q4d)?
A: 179.8 mg/dL

Q: What about the “Glucose, ipGTT 15 min” value (DIO C57Bl/6 mice; 6 mg/kg q4d) of the same substance?
A: 557.3 mg/dL

Q: What about the “Insulin, ipGTT 0 min” value (DIO C57Bl/6 mice; 6 mg/kg q4d) of the same substance?
A: 53.2 uU/ml

Q: What about the “Insulin, ipGTT 15 min” value (DIO C57Bl/6 mice; 6 mg/kg q4d) of the same substance?
A: 64.3 uU/ml

Q: What about the “Glucose, ipGTT 0 min” value (DIO C57Bl/6 mice; 12 mg/kg Q8D) of the same substance?
A: 204.0 mg/dL

Q: And the “Glucose, ipGTT 15 min” value (DIO C57Bl/6 mice; 12 mg/kg Q8D)?
A: 553.1 mg/dL

Q: And the “Insulin, ipGTT 0 min” value (DIO C57Bl/6 mice; 12 mg/kg Q8D)?
A: 75.9 uU/ml

Q: And the “Insulin, ipGTT 15 min” value (DIO C57Bl/6 mice; 12 mg/kg Q8D)?
A: 96.0 uU/ml

Q: What about the fasting insulin (DIO C57Bl/6 mice; all Compound 16 groups, FIG. 22) of the same substance?
A: fasting insulin was also reduced

Q: And the “Group Avg. BW, Study Day 1” value (DIO C57Bl6 mice; 2 mg/kg q4d sc)?
A: 47.0 g

Q: And the “Group Avg. BW, Study Day 7” value (DIO C57Bl6 mice; 2 mg/kg q4d sc)?
A: 43.4 g

Q: What about the “Group Avg. BW, Study Day 15” value (DIO C57Bl6 mice; 2 mg/kg q4d sc) of the same substance?
A: 43.2 g

Q: And the “Group Avg. BW, Study Day 21” value (DIO C57Bl6 mice; 2 mg/kg q4d sc)?
A: 42.0 g

Q: And the “Group Avg. BW, Study Day 26” value (DIO C57Bl6 mice; 2 mg/kg q4d sc)?
A: 41.7 g

Q: What about the “BW change vs. vehicle” value (DIO C57Bl6 mice; 2 mg/kg q4d sc) of the same substance?
A: −9.6%

Q: And the “Group Avg. BW, Study Day 1” value (DIO C57Bl6 mice; 12 mg/kg q8d sc)?
A: 47.0 g

Q: What about the “Group Avg. BW, Study Day 7” value (DIO C57Bl6 mice; 12 mg/kg q8d sc) of the same substance?
A: 41.3 g

Q: And the “Group Avg. BW, Study Day 15” value (DIO C57Bl6 mice; 12 mg/kg q8d sc)?
A: 38.3 g

Q: What about the “Group Avg. BW, Study Day 21” value (DIO C57Bl6 mice; 12 mg/kg q8d sc) of the same substance?
A: 36.2 g

Q: And the “Group Avg. BW, Study Day 26” value (DIO C57Bl6 mice; 12 mg/kg q8d sc)?
A: 38.0 g

Q: What about the “BW change vs. vehicle” value (DIO C57Bl6 mice; 12 mg/kg q8d sc) of the same substance?
A: −17.5%
